Tests used:
[1] = molecular target: T1, FLAG-tagged Vanin-1 (AA 22-493, T26I) (Homo sapiens, UniProt O95497, T26I); experiment: Vanin-1 enzymatic assay (pantothenic acid formation, RapidFire mass spectrometry); assay type: biochemical; conditions: 0.1 nM FLAG-tagged Vanin-1, 3 μM D-pantethine, room temperature; geometric mean in case of multiple measurements; read-out: VNN-1 IC50
T1 construct: FLAG-tagged Vanin-1 (AA 22-493, T26I, produced internally); FLAG; made in house
T1 sequence (O95497 22-493 T26I): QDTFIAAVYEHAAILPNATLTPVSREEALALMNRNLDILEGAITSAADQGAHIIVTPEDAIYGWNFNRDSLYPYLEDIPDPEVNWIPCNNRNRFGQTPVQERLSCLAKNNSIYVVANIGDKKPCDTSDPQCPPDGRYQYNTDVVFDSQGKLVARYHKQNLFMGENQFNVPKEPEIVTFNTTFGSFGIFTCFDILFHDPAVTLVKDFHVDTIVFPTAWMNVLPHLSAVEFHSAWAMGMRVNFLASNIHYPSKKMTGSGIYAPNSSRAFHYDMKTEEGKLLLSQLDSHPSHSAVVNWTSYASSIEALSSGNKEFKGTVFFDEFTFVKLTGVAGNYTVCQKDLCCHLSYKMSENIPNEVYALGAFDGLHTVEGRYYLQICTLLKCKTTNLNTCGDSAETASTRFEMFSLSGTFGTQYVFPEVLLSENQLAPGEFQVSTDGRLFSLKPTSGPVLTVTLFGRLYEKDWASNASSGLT
Method: Description of Biological Properties Vanin-1 Enzymatic Assay:
The test compounds are dissolved in 100% DMSO at a concentration of 10 mM and in a first step diluted in DMSO to a concentration of 5 mM, followed by serial dilution steps in 100% DMSO. Dilution factor and number of dilution steps may vary according to needs. Typically 8 different concentrations by 1:5 dilutions are prepared, a further intermediate dilutions of the substances is carried out with assay buffer resulting in 1% final DMSO concentration in the assay.
0.1 nM of FLAG-tagged Vanin-1 (AA 22-493, T26I, produced internally) and test compounds are incubated at room temperature for 20 minutes in assay buffer (1 mM DTT, 0.0025% Brij-35, 50 mM HEPES, pH7.5). D-Pantethine (Sigma, Cat #P2125-5G) in assay buffer is added (final concentration 3 μM) and incubated for additional 30 minutes at room temperature. Total assay volume typically is 40 μl but might be adjusted according to needs. Reaction is stopped by adding equal volume of stop solution as the reaction mixture to reach 100 nM HD-pantothenic acid (as an internal standard) and 1% TFA. Assay plates are centrifuged for 2 minutes and the formation of pantothenic acid is detected by RapidFire Mass Spectrometry (mobile phase A: 0.1% formic acid and 0.01% trifluoroacetic acid in water; mobile phase B: 47.5% acetonitrile, 47.5% methanol, 0.1% formic acid and 0.01% trifluoroacetic acid in water) using a C18, 12 μL cartridge (Agilent Cat #G9205A).
The values given in Table I result from measurements of one or more samples. In case of multiple measurements the geometric mean values are given.

[2] = tested on: Pantetheinase (vanin); experiment: Human Whole Blood assay (vanin activity by pantothenic acid formation); assay type: cell-based; conditions: pantethine substrate, 5 min reaction at room temperature, geometric mean in case of multiple measurements, read-out: HWB IC50
Method: Human Whole Blood assay: Pantetheinase (vanin) converts panteheine into pantothenic acid and cysteamine. Accordingly, in the described protocol vanin activity is quantified by formation of pantothenic acid after pantetheine supplementation via pantethine. The assay is applicable to identify vanin inhibitors. Compound stocks are dissolved in DMSO at 10 mM. Further dilutions are performed in RPMI 1640 medium (Gibco, #A-10491-01) and final concentrations in the assay are 0.032 nM-500 nM.
Human blood is drawn into a blood bag (1% heparin, 50 I.E./mL). Blood is aliquoted into cavities of 96-deep-well plates at 290 μL and mixed with 10 μL compound solution or vehicle (30 sec at 1400 rpm on a shaker). Equilibration follows at room temperature, 250 rpm and for 30 min. The assay is started by adding 10 μL of substrate solution (2 μM pantethine in 1 mM DTT, 0.0025% Brij-35, 50 mM HEPES, pH7.5) to each well, except for some blank wells which receive […] substrate buffer (1 mM DTT, 0.0025% Brij-35, 50 mM HEPES, pH7.5) only. Samples are thoroughly shaken (30 sec, 1400 rpm) and reaction is allowed to take place at room temperature, 250 rpm and for 5 min. The reaction is stopped by addition of a vanin tool inhibitor in excess (BI-1 total conc. 10 μM). Centrifugation of the plate follows at 4° C., 665 G for 10 min. Then the blood plasma samples (100 μL) are transferred into another 96-deep-well plate and proteins are precipitated (5 min on ice) by adding 100 μL of ice cold precipitation solution (1 μM labelled pantothenic acid (di-β-alanine-13C6,15N2 calcium salt, Sigma, #705837) in acetonitrile).
Afterwards the plate is centrifuged (4° C., 3220 G, 10 min) and supernatants (50 μL) are collected into another 96-deep-well plate and mixed (10 sec, 1400 rpm) with 150 μL ice cold formic acid (0.1%, Carl Roth GmbH+Co.KG, #CP03.1). The formation of pantothenic acid is detected by RapidFire Mass Spectrometry. A TripleQuad 6500+(ABSciex, Germany) is equipped with an LC-1290 system, a RapidFire autosampler (Agilent, Germany) and a C18 cartridge Type C 12 μL (Agilent Cat #G9526-80000). Mobile phase A is consisting of 0.09% formic acid and 0.01% trifluoroacetic acid in water and mobile phase B of 0.09% formic acid and 0.01% trifluoroacetic acid in acetonitrile/methanol/water=47.5/47.5/5.

Structure (SMILES) | IC50 [1] [nM] | IC50 [2] [nM]
CC(=O)N(C)[C@H]1CCN(C(=O)c2ccc(N[C@@H](C)c3ccc4nc[nH]c4c3)nc2)C1 [Example 5.36] | 0.22 | 4.86
O=C(c1ccc(NCc2cnc3ccccn23)nc1)N1CC[C@H](N2CCOC2=O)C1 [Example 1.1, 3-[(3S)-1-{6-[({Imidazo[1,2-a]pyridin-3-yl}methyl)amino]pyridine-3-carbonyl}pyrrolidin-3-yl]-1,3-oxazolidin-2-one] | 0.24 | 3.49
O=C(c1ccc(NCc2cnc3ccccn23)nc1)N1CC[C@H](N2CCCC2=O)C1 [Example 1.15] | 0.19 | 4.82
CC(=O)N(C)[C@H]1CCN(C(=O)c2ccc(N[C@@H](C)c3nc4ccccc4[nH]3)nc2)C1 [Example 5.23] | 1.43 | 4.1
CC(=O)N(C)[C@H]1CCN(C(=O)c2ccc(N[C@@H](C)c3ccc4[nH]ncc4c3)nc2)C1 [Example 5.8] | 0.16 | 1.71
CC(=O)N(C)[C@H]1CCN(C(=O)c2ccc(NCc3cccc4ncccc34)nc2)C1 [Example 5.24] | 1.23 | 3.88
CC(=O)N(C)[C@H]1CCN(C(=O)c2ccc(NCc3c(C)ccc4nc(C)[nH]c34)nc2)C1 [Example 5.40] | 0.54 | 1.06
CC1(C#N)CCN(C(=O)c2ccc(NCc3ccnc4[nH]ccc34)nc2)C1 (centres unmarked) [Example 1.19] | 0.3 | 3.78
CC(=O)N(C)[C@H]1CCN(C(=O)c2ccc(N[C@@H](C)c3cccc4[nH]ncc34)nc2)C1 [Example 7.1, N-[(3S)-1-(6-{[(1S)-1-(1H-Indazol-4-yl)ethyl]amino}pyridine-3-carbonyl)pyrrolidin-3-yl]-N-methylacetamide] | 0.33 | 7.66
CC(=O)N(C)[C@H]1CCN(C(=O)c2ccc(NCc3cnc4ccsc4c3)nc2)C1 [Example 2.4] | 0.29 | 1.39
CC(=O)N(C)[C@H]1CCN(C(=O)c2ccc(NCc3noc4c3CCCC4)nc2)C1 [Example 5.21] | 0.79 | 3.4
CN(C(=O)C1CC1)[C@H]1CCN(C(=O)c2ccc(NCc3cnc4ccccn34)nc2)C1 [Example 1.16] | 0.2 | 2.78
CC(=O)N(C)[C@H]1CCN(C(=O)c2ccc(NCc3cnc4ccccn34)nc2)C1 [Example 5.12] | 0.23 | 3.91
CC1(C#N)CCN(C(=O)c2ccc(NCc3ncn4ccccc34)nc2)C1 (centres unmarked) [Example 1.17] | 0.83 | 10.4
CN(C(=O)C1(C)CCC1)[C@H]1CCN(C(=O)c2ccc(NCc3cnc4ccccn34)nc2)C1 [Example 1.14] | 0.18 | 2.59
CC(=O)N(C)[C@H]1CCN(C(=O)c2ccc(N[C@@H](C)c3nc4cc(Cl)ccc4[nH]3)nc2)C1 [Example 5.15] | 0.6 | 7.52
CC(=O)N(C)[C@H]1CCN(C(=O)c2ccc(NCc3n[nH]c4ccccc34)nc2)C1 [Example 5.14] | 0.36 | 1.69
CC(=O)N(C)[C@H]1CCN(C(=O)c2ccc(NCc3n[nH]c4ccc(Cl)cc34)nc2)C1 [Example 2.1, N-[1(3S)-1-(6-{1[(5-Chloro-1H-indazol-3-yl)methyl]amino}pyridine-3-carbonyl)pyrrolidin-3-yl]-N-methylacetamide] | 0.23 | 5.03
CC(=O)N(C)[C@H]1CCN(C(=O)c2ccc(NCc3ncn4ccccc34)nc2)C1 [Example 5.19] | 0.75 | 3.69

Stronger by IC50 [1], values ahead:

IC50 [1] [nM] | IC50 [2] [nM] | Structure (SMILES)
0.15 | 3.03 | CN(C(=O)C1(C#N)CC1)[C@H]1CCN(C(=O)c2ccc(NCc3cnc4ccccn34)nc2)C1 [Example 1.13]
0.13 | 2.1 | CC(=O)N(C)[C@H]1CCN(C(=O)c2ccc(NCc3cccc4[nH]ccc34)nc2)C1 [Example 5.6]
0.13 | 1.7 | C[C@H](Nc1ccc(C(=O)N2CC[C@H](N(C)C(=O)C3(C#N)CC3)C2)cn1)c1cnc2[nH]ccc2c1 [Example 1.7]
0.12 | 1.59 | CC(=O)N(C)[C@H]1CCN(C(=O)c2ccc(NCc3c(Cl)nc4sccn34)nc2)C1 [Example 5.4]
0.11 | 1.58 | C[C@H](Nc1ccc(C(=O)N2CC[C@H](N(C)C(=O)C3CCC3)C2)cn1)c1cnc2[nH]ccc2c1 [Example 1.5]
0.1 | 2.07 | C[C@H](Nc1ccc(C(=O)N2CC[C@H](N(C)C(=O)C3CCC3)C2)cn1)c1cnc2[nH]ccc2c1 [Example 1.4]
0.1 | 3.05 | C[C@H](Nc1ccc(C(=O)N2CC[C@H](N(C)C(=O)C3(C#N)CC3)C2)cn1)c1cnc2[nH]ccc2c1 [Example 1.3]
0.1 | 1.63 | CN(C(=O)C1CCC1)[C@H]1CCN(C(=O)c2ccc(NCc3cnc4ccccn34)nc2)C1 [Example 4.1, N-[(3S)-1-{6-[({Imidazo[1,2-a]pyridin-3-yl}methyl)amino]pyridine-3-carbonyl}pyrrolidin-3-yl]-N-methylcyclobutanecarboxamide]
0.09 | 1.94 | C[C@H](Nc1ccc(C(=O)N2CC[C@H](N(C)C(=O)C3CC3)C2)cn1)c1cnc2[nH]ccc2c1 [Example 1.2]
0.09 | 11.2 | CC(=O)N(C)[C@H]1CCN(C(=O)c2ccc(NCc3cccc4[nH]ncc34)nc2)C1 [Example 5.3]
0.07 | 1.68 | CC(=O)N(C)[C@H]1CCN(C(=O)c2ccc(N[C@@H](C)c3cccc4c3cnn4C)nc2)C1 [Example 5.2]
0.04 | 1.17 | CC(=O)N(C)[C@H]1CCN(C(=O)c2ccc(NCc3cncc4ccsc34)nc2)C1 [Example 5.1, N-Methyl-N-[(3S)-1-{6-[({thieno[3,2-c]pyridin-7-yl}methyl)amino]pyridine-3-carbonyl}pyrrolidin-3-yl]acetamide]
